Entries after “also recorded” stand apart in the source; their conditions may differ.
Assays:
[1] = test system: healthy female C57BL/6 mice (no EAE induced); test: Morris water maze (spatial memory) in ovariectomized mice; assay type: in vivo, mouse; settings: for Morris water maze learning (time in target quadrant): ovariectomized, estriol-treated mice (OVX-Estriol) vs OVX-Placebo
Procedure: FIG. 25. Peripheral estrogens improve performance on the Morris water maze via ERβ expressed on neurons. Healthy female C57BL/6 (with no EAE induced) were tested for cognitive performance (spatial memory) using the Morris water maze, whereby mice learn to spend more time in a target quadrant (TQ) as compared to three other quadrants (OQ). […] (Bottom graph) To determine (a) whether ER beta is required for proper learning and, more specifically, (b) whether ER beta expression in neurons is required for learning, mice were generated that had ER beta conditionally knocked out using CreLox technology, with Cre driving the knock out in neurons via the neuron-specific enolase (NSE) promoter. […] (***p≤0.001, ANOVA-Sidak's posttest). […] The dashed line on the graphs indicates the time expected to be spent in a quadrant by random chance in the absence of learning (25%).

[2] = Dissolution of the compound in the oil vehicle; assay type: physicochemical; settings: DPN; needed ethanol first
Procedure: (§1) Reagents. AC-186 was dissolved in either Miglyol 812N liquid oil (Sasol North America) or sesame oil (Sigma Aldrich) as following concentration; 1.5 mg/mL for 3 mg/kg group, 5 mg/mL for 10 mg/kg group, and 15 mg/mL for 30 mg/kg group. Diarylpropionitrile (DPN, Tocris Biosciences) was dissolved in 10% molecular-grade ethanol and diluted with 90% of either Miglyol 812N liquid oil or sesame oil.
Three doses of the AC-186 compound were tested in C57BL6 female mice: low (3 mg/kg, every other day), medium (10 mg/kg, every other day), and high (30 mg/kg, every other day), each injected subcutaneously in a sesame oil vehicle. The ERβ ligand diarylpropionitrile (DPN) was tested as a positive control because DPN can partially ameliorate EAE and because the treatment effects in EAE experiments can vary based on the level of disease severity within an experiment. Direct comparisons between treatments were only made between treatment groups within a single EAE experiment and not between treatment groups of different EAE experiments. […] The difference in improvement between the 30 mg/kg AC-186 group and all other groups increased with time.

[3] = test system: spinal cords of C57BL/6 females with EAE; settings: DPN; previous experiments; cited from earlier work
EAE in C57BL/6 mice [4] = test: Standard EAE clinical score (0-5 scale), MOG 35-55 induced EAE, C57BL/6 mice; assay type: in vivo, mouse
From the text: (§2) Animals. C57BL/6 and NOD mice 8 weeks old were purchased from Jackson Laboratories (Bar Harbor, Me.). Animals were maintained under environmentally controlled conditions in a 12-hour light/dark cycle with access to food and water ad libitum. All procedures were done in accordance with the guidelines of the National Institutes of Health and the Chancellor's Animal Research Committee of the University of California, Los Angeles Office for the Protection of Research Subjects.
as §1
(§3) EAE and Treatments. Animals were injected subcutaneously with Myelin Oligodendrocyte Glycoprotein (MOG), amino acids 35-55 (200 μg/animal, American Peptides), emulsified in complete Freund's adjuvant (CFA) and supplemented with Mycobacterium tuberculosis H37ra (300 μg/animal, Difco Laboratories), over two sites drained by left inguinal and auxiliary lymph nodes in a total volume of 0.1 ml/mouse. One week later, a booster immunization was delivered over contra lateral lymph nodes. Pertussis toxin (500 ng/mouse) (List Biological Laboratories, Inc.) was injected intraperitoneally on days 0 and 2. Animals were monitored daily for EAE signs based on a standard EAE 0-5 scale scoring system: 0—healthy, 1—complete loss of tail tonicity, 2—loss of righting reflex, 3—partial paralysis, 4—complete paralysis of one or both hind limbs, and 5—moribund. Animals received 0.05 ml of either of 1.5, 5, 15 mg/mL AC-186, vehicle (sesame oil or Miglyol 812N liquid oil), or DPN (8 mg/kg/day) via subcutaneous injections every other day. Animals were treated with AC-186 or vehicle after EAE induction. Specifically, treatment was initiated at the first clear signs of clinical disease (EAE day 13-15), and continued to the endpoint of the experiment.

EAE in C57BL/6 mice [5] = test: Rotarod testing of motor coordination and balance in EAE, C57BL/6 mice; assay type: in vivo, mouse; settings: DPN in 10% ethanol/miglyol vs miglyol vehicle (FIG. 4; strain not given)
Procedure: Rotarod Testing. Motor behavior was tested up to two times per week for each mouse using a rotarod apparatus (Med Associates Inc., St. Albans, Vt.). Briefly, animals were placed on a rotating horizontal cylinder for a maximum of 200 seconds. The amount of time the mouse remained walking on the cylinder, without falling, was recorded. Each mouse was tested on a speed of 3-30 rpm and given three trials for any given day. The three trials were averaged to report a single value for an individual mouse, and then averages were calculated for all animals within a given treatment group. The first two trial days prior to immunization (day 0), served as practice trials.

EAE in NOD mice = test: Standard EAE clinical score (0-5 scale), MOG-induced EAE, NOD mice; assay type: in vivo, mouse; settings: NOD females; DPN in miglyol vehicle; vs vehicle
From the text: as §2, §1, §3

EAE in C57BL/6 mice [6] = settings: DPN in Miglyol carrier; previous work; cited from earlier work

SMILES | Morris water maze learning (% duration in target quadrant) ([1]; OVX-Estriol NSE-Cre:ERβ fl/fl mice (neuronal ER beta knockout), listed as Estriol) | Morris water maze learning (time in target quadrant) [1] | Morris water maze learning (time in target quadrant) ([1]; listed as Estriol) | Dissolution in sesame oil [2] | CD45 staining in the CNS [3] | Iba-1 globoid cell staining [3] | EAE score (EAE in C57BL/6 mice [4]; DPN in 10% ethanol/miglyol vs miglyol vehicle (FIG. 4; strain not given)) | EAE score (EAE in C57BL/6 mice [4]; female C57BL/6, DPN in 10% ethanol in sesame oil) | Rotarod times (EAE in C57BL/6 mice [5]) | EAE score (EAE in NOD mice) | EAE amelioration (EAE in C57BL/6 mice [6])
C[C@]12CC[C@@H]3c4ccc(O)cc4CC[C@H]3[C@@H]1C[C@@H](O)[C@@H]2O [estriol] | estrogen-mediated improvement is lost | ability to learn may be restored | improves performance | – | – | – | – | – | – | – | –
N#CC(Cc1ccc(O)cc1)c1ccc(O)cc1 (centres unmarked) [DPN, Diarylpropionitrile, reference compound] | – | – | – | difficult to dissolve in sesame oil | no significant effect on CD45 staining; also recorded: no effect on CD45 or Iba-1 globoid cell staining | no effect on CD45 or Iba-1 globoid cell staining | protects against EAE better; also recorded: better EAE scores | not effective | better performance with the rotarod test | significantly ameliorated EAE; also recorded: better EAE scores | ameliorated EAE

From patent US11628146B2, “Estrogen receptor ligand treatment for neurodegenerative diseases” (The Regents of the University of California, priority 2014, dated 2023)
